# In PMC5218480 (PLoS ONE, 2017):
# Tested on: MV-4-11 cells
# Experiment: Gene expression microarray analysis (Affymetrix PrimeView) and GSEA
# Assay type: cell-based, human
# Set-up: RFU PODN (11730768_x_at) / Fold change /veh PODN (11730768_x_at) / RFU LINC00158 (11744669_a_at) / Fold change /veh LINC00158 (11744669_a_at) / RFU DUSP10 (11751237_a_at) / Fold change /veh DUSP10 (11751237_a_at) / RFU ID3 (11757404_x_at) / Fold change /veh ID3 (11757404_x_at) / RFU PLEKHG5 (11737974_s_at) / Fold change /veh PLEKHG5 (11737974_s_at) / RFU LRRC4B (11730491_at) / Fold change /veh LRRC4B (11730491_at) / RFU GIMAP4 (11747438_a_at) / Fold change /veh GIMAP4 (11747438_a_at) / RFU KRT8 (11758183_x_at) / Fold change /veh KRT8 (11758183_x_at) / RFU CNN1 (11734310_a_at) / Fold change /veh CNN1 (11734310_a_at) / RFU VPS37D (11726825_at) / Fold change /veh VPS37D (11726825_at) / RFU C10orf10 (11716522_x_at) / Fold change /veh C10orf10 (11716522_x_at) / RFU KIR2DL2 /// KIR2DL4 /// KIR2DL5A /// KIR2DL5B /// KIR2DS1 /// KIR2DS2 /// KIR2DS3 /// KIR2DS4 /// KIR3DL3 /// KIR3DL3 /// KIR3DS1 (11738374_at) / Fold change /veh KIR2DL2 /// KIR2DL4 /// KIR2DL5A /// KIR2DL5B /// KIR2DS1 /// KIR2DS2 /// KIR2DS3 /// KIR2DS4 /// KIR3DL3 /// KIR3DL3 /// KIR3DS1 (11738374_at) / RFU C1QL1 (11718748_at) / Fold change /veh C1QL1 (11718748_at) / RFU TMPRSS4 (11747572_a_at) / Fold change /veh TMPRSS4 (11747572_a_at) / RFU HAMP (11756126_x_at) / Fold change /veh HAMP (11756126_x_at) / RFU RNFT2 (11725882_a_at) / Fold change /veh RNFT2 (11725882_a_at) / RFU NR4A2 (11747474_a_at) / Fold change /veh NR4A2 (11747474_a_at) / RFU ABCC12 (11746883_a_at) / Fold change /veh ABCC12 (11746883_a_at) / RFU TMEM136 (11760407_x_at) / Fold change /veh TMEM136 (11760407_x_at) / RFU CLDN22 /// WWC2 (11732394_at) / Fold change /veh CLDN22 /// WWC2 (11732394_at) / RFU HLA-DPB1 (11760878_x_at) / Fold change /veh HLA-DPB1 (11760878_x_at) / RFU SPINT1 (11716480_a_at) / Fold change /veh SPINT1 (11716480_a_at) / RFU GAP43 (11754022_s_at) / Fold change /veh GAP43 (11754022_s_at) / RFU A4GNT (11735810_at) / Fold change /veh A4GNT (11735810_at) / RFU PRB3 (11715151_x_at) / Fold change /veh PRB3 (11715151_x_at) / RFU TUBB4B (11761932_at) / Fold change /veh TUBB4B (11761932_at) / RFU CAPN14 (11732068_a_at) / Fold change /veh CAPN14 (11732068_a_at) / RFU TMCC2 (11721928_a_at) / Fold change /veh TMCC2 (11721928_a_at) / RFU IRGQ (11745062_a_at) / Fold change /veh IRGQ (11745062_a_at) / RFU FAM174B (11720279_a_at) / Fold change /veh FAM174B (11720279_a_at) / RFU TMPRSS4 (11748680_a_at) / Fold change /veh TMPRSS4 (11748680_a_at) / RFU FAM212B (11763350_a_at) / Fold change /veh FAM212B (11763350_a_at) / RFU PLEKHG5 (11743358_a_at) / Fold change /veh PLEKHG5 (11743358_a_at) / RFU ZSCAN30 (11745921_a_at) / Fold change /veh ZSCAN30 (11745921_a_at) / RFU CMKLR1 (11741424_a_at) / Fold change /veh CMKLR1 (11741424_a_at) / RFU LOC101060620 /// MAPK8IP1 (11723275_at) / Fold change /veh LOC101060620 /// MAPK8IP1 (11723275_at) / RFU SPTSSB (11747773_x_at) / Fold change /veh SPTSSB (11747773_x_at) / RFU PRSS12 (11739890_at) / Fold change /veh PRSS12 (11739890_at) / RFU BIN1 (11741810_x_at) / Fold change /veh BIN1 (11741810_x_at) / RFU WNT11 (11732464_a_at) / Fold change /veh WNT11 (11732464_a_at) / RFU C10orf10 (11716521_a_at) / Fold change /veh C10orf10 (11716521_a_at) / RFU C5orf56 (11738089_at) / Fold change /veh C5orf56 (11738089_at) / RFU CYB561 (11721691_x_at) / Fold change /veh CYB561 (11721691_x_at) / RFU ANKRD19P (11752326_a_at) / Fold change /veh ANKRD19P (11752326_a_at) / RFU OR2T12 /// OR2T33 /// OR2T8 (11738714_s_at) / Fold change /veh OR2T12 /// OR2T33 /// OR2T8 (11738714_s_at) / RFU VCAN (11748164_a_at) / Fold change /veh VCAN (11748164_a_at) / RFU JSRP1 (11732532_at) / Fold change /veh JSRP1 (11732532_at) / RFU KRTAP10-11 (11738290_x_at) / Fold change /veh KRTAP10-11 (11738290_x_at) / RFU MYO3A (11730013_a_at) / Fold change /veh MYO3A (11730013_a_at) / RFU EBF3 (11725865_a_at) / Fold change /veh EBF3 (11725865_a_at) / RFU CAMK2N1 (11719241_x_at) / Fold change /veh CAMK2N1 (11719241_x_at) / RFU C5orf56 (11738088_a_at) / Fold change /veh C5orf56 (11738088_a_at) / RFU OLFML3 (11715873_a_at) / Fold change /veh OLFML3 (11715873_a_at) / RFU LOC100653217 /// NTM (11731650_a_at) / Fold change /veh LOC100653217 /// NTM (11731650_a_at) / RFU MAPK11 (11762145_a_at) / Fold change /veh MAPK11 (11762145_a_at) / RFU FIZ1 (11724087_x_at) / Fold change /veh FIZ1 (11724087_x_at) / RFU OASL (11726364_x_at) / Fold change /veh OASL (11726364_x_at) / RFU SOX15 (11748057_x_at) / Fold change /veh SOX15 (11748057_x_at) / RFU CD79A (11719716_a_at) / Fold change /veh CD79A (11719716_a_at) / RFU HIST1H1D (11736915_at) / Fold change /veh HIST1H1D (11736915_at) / RFU CASKIN2 (11723855_a_at) / Fold change /veh CASKIN2 (11723855_a_at) / RFU LOC730098 (11760151_x_at) / Fold change /veh LOC730098 (11760151_x_at) / RFU OR4N2 (11742367_at) / Fold change /veh OR4N2 (11742367_at) / RFU PRRT2 (11749266_a_at) / Fold change /veh PRRT2 (11749266_a_at) / RFU SNX32 (11753110_a_at) / Fold change /veh SNX32 (11753110_a_at) / RFU CDHR5 (11726645_a_at) / Fold change /veh CDHR5 (11726645_a_at) / RFU RCAN1 (11760418_a_at) / Fold change /veh RCAN1 (11760418_a_at) / RFU FAM167A (11723789_a_at) / Fold change /veh FAM167A (11723789_a_at) / RFU FAM26E (11764081_at) / Fold change /veh FAM26E (11764081_at) / RFU ISYNA1 (11749810_s_at) / Fold change /veh ISYNA1 (11749810_s_at) / RFU ACY1 (11761880_at) / Fold change /veh ACY1 (11761880_at) / RFU 11764098_at / Fold change /veh 11764098_at / RFU SAMD14 (11745864_x_at) / Fold change /veh SAMD14 (11745864_x_at) / RFU NPB (11741838_a_at) / Fold change /veh NPB (11741838_a_at) / RFU TMPRSS6 (11731388_a_at) / Fold change /veh TMPRSS6 (11731388_a_at) / RFU KRTAP10-2 (11738614_at) / Fold change /veh KRTAP10-2 (11738614_at) / RFU ARHGAP8 /// PRR5-ARHGAP8 (11727945_x_at) / Fold change /veh ARHGAP8 /// PRR5-ARHGAP8 (11727945_x_at) / RFU KRTAP5-7 /// NADSYN1 (11734609_at) / Fold change /veh KRTAP5-7 /// NADSYN1 (11734609_at) / RFU RASL12 (11751679_a_at) / Fold change /veh RASL12 (11751679_a_at) / RFU CDKN2B (11736163_a_at) / Fold change /veh CDKN2B (11736163_a_at) / RFU PRF1 (11729649_at) / Fold change /veh PRF1 (11729649_at) / RFU, ZNF638 /// ZNF638-IT1 / Fold change vs veh, ZNF638 /// ZNF638-IT1 / RFU, PANK3 / Fold change vs veh, PANK3 / RFU, SH3YL1 / Fold change vs veh, SH3YL1 / RFU, ZEB2 / Fold change vs veh, ZEB2 / RFU, NRIP1 / Fold change vs veh, NRIP1 / RFU, PTTG1IP / Fold change vs veh, PTTG1IP / RFU, CAPN2 / Fold change vs veh, CAPN2 / RFU, MED14 / Fold change vs veh, MED14 / RFU, SNORA58 / Fold change vs veh, SNORA58 / RFU, C1orf63 / Fold change vs veh, C1orf63 / RFU, LRRFIP1 / Fold change vs veh, LRRFIP1 / RFU, NDUFAF7 / Fold change vs veh, NDUFAF7 / RFU, SLC12A2 / Fold change vs veh, SLC12A2 / RFU, IBTK / Fold change vs veh, IBTK / RFU, ESF1 / Fold change vs veh, ESF1 / Fold change vs veh, TMEM50B / RFU, TAOK1 / Fold change vs veh, TAOK1 / RFU, ACBD3 / Fold change vs veh, ACBD3 / RFU, TMA16 / Fold change vs veh, TMA16 / RFU, RWDD3 / Fold change vs veh, RWDD3 / RFU, BCAT1 / Fold change vs veh, BCAT1 / RFU, EDEM3 / Fold change vs veh, EDEM3 / RFU, TMEM33 / Fold change vs veh, TMEM33 / RFU, WDR75 / Fold change vs veh, WDR75 / RFU, AHCTF1 / Fold change vs veh, AHCTF1 / RFU, TFRC / Fold change vs veh, TFRC / RFU, ZDHHC17 / Fold change vs veh, ZDHHC17 / RFU, NOM1 / Fold change vs veh, NOM1 / RFU, ARL8B / Fold change vs veh, ARL8B / RFU, ZBTB11 / Fold change vs veh, ZBTB11 / RFU, TAMM41 / Fold change vs veh, TAMM41 / RFU, KIAA1704 /// LOC100996395 / Fold change vs veh, KIAA1704 /// LOC100996395 / RFU, ING1 / Fold change vs veh, ING1 / RFU, TRMT61B / Fold change vs veh, TRMT61B / RFU, FUBP3 / Fold change vs veh, FUBP3 / RFU, TP53 / Fold change vs veh, TP53 / RFU, TNKS2 / Fold change vs veh, TNKS2 / RFU, ZFP14 / Fold change vs veh, ZFP14 / RFU, ACTR2 / Fold change vs veh, ACTR2 / RFU, PPP3R1 / Fold change vs veh, PPP3R1 / RFU, PIK3R1 / Fold change vs veh, PIK3R1 / RFU, HNRNPA1 / Fold change vs veh, HNRNPA1 / RFU, RNF170 / Fold change vs veh, RNF170 / RFU, ZNF28 / Fold change vs veh, ZNF28 / RFU, RNGTT / Fold change vs veh, RNGTT / RFU, OGT / Fold change vs veh, OGT / RFU, BRD1 / Fold change vs veh, BRD1 / RFU, MARS / Fold change vs veh, MARS / RFU, ZNF655 / Fold change vs veh, ZNF655 / RFU, FAHD1 / Fold change vs veh, FAHD1 / RFU, BDP1 / Fold change vs veh, BDP1 / RFU, LRRCC1 / Fold change vs veh, LRRCC1 / RFU, ARID1A / Fold change vs veh, ARID1A / RFU, ZNF146 / Fold change vs veh, ZNF146 / RFU, ZNF330 / Fold change vs veh, ZNF330 / RFU, GPN3 / Fold change vs veh, GPN3 / RFU, C9orf123 / Fold change vs veh, C9orf123 / RFU, N4BP2L2 / Fold change vs veh, N4BP2L2 / RFU, ARFIP1 / Fold change vs veh, ARFIP1 / RFU, FAM179B / Fold change vs veh, FAM179B / RFU, BCL10 / Fold change vs veh, BCL10 / RFU, UHRF1BP1L / Fold change vs veh, UHRF1BP1L / RFU, BET1 / Fold change vs veh, BET1 / RFU, CNOT2 / Fold change vs veh, CNOT2 / RFU, ZNF268 / Fold change vs veh, ZNF268 / Fold change vs veh, ZNF507 / RFU, DGCR2 / Fold change vs veh, DGCR2 / RFU, WDSUB1 / Fold change vs veh, WDSUB1 / Fold change vs veh, HSP90B1 /// MIR3652 / RFU, ADSS / Fold change vs veh, ADSS / RFU, GK / Fold change vs veh, GK / RFU, ZNF148 / Fold change vs veh, ZNF148 / RFU, TAF9 / Fold change vs veh, TAF9 / RFU, SLC1A5 / Fold change vs veh, SLC1A5 / RFU, SLMO2 / Fold change vs veh, SLMO2 / RFU, ABCC4 / Fold change vs veh, ABCC4 / RFU, LOC101060439 /// RAP1B / Fold change vs veh, LOC101060439 /// RAP1B / RFU, RFX7 / Fold change vs veh, RFX7 / RFU, GTPBP10 / Fold change vs veh, GTPBP10 / RFU, CNEP1R1 / Fold change vs veh, CNEP1R1 / RFU, BIVM-ERCC5 /// ERCC5 / Fold change vs veh, BIVM-ERCC5 /// ERCC5 / RFU, ILF3 / Fold change vs veh, ILF3 / RFU 11762660_at / Fold change /veh 11762660_at / RFU VCAN (11757783_s_at) / Fold change /veh VCAN (11757783_s_at) / RFU DDX43 (11728927_at) / Fold change /veh DDX43 (11728927_at) / RFU KRT8 (11758188_x_at) / Fold change /veh KRT8 (11758188_x_at) / RFU NKD1 (11759106_at) / Fold change /veh NKD1 (11759106_at) / RFU SRD5A1 (11742802_a_at) / Fold change /veh SRD5A1 (11742802_a_at) / RFU TPSAB1 /// TPSB2 (11721975_s_at) / Fold change /veh TPSAB1 /// TPSB2 (11721975_s_at) / RFU GSTM3 (11746129_a_at) / Fold change /veh GSTM3 (11746129_a_at) / RFU IL23R (11737362_x_at) / Fold change /veh IL23R (11737362_x_at) / RFU TMEM51 (11727254_a_at) / Fold change /veh TMEM51 (11727254_a_at) / RFU PIWIL2 (11732686_x_at) / Fold change /veh PIWIL2 (11732686_x_at) / RFU ORM1 (11744905_x_at) / Fold change /veh ORM1 (11744905_x_at) / RFU CCDC152 (11743942_at) / Fold change /veh CCDC152 (11743942_at) / RFU ECM1 (11717891_a_at) / Fold change /veh ECM1 (11717891_a_at) / RFU IL23R (11748794_a_at) / Fold change /veh IL23R (11748794_a_at) / RFU TNFAIP8L3 (11732012_x_at) / Fold change /veh TNFAIP8L3 (11732012_x_at) / RFU MBOAT4 (11741988_at) / Fold change /veh MBOAT4 (11741988_at) / RFU 11764193_at / Fold change /veh 11764193_at / RFU TMEM53 (11763286_at) / Fold change /veh TMEM53 (11763286_at) / RFU MAGEB2 (11727129_at) / Fold change /veh MAGEB2 (11727129_at) / RFU TMEM200A (11744735_a_at) / Fold change /veh TMEM200A (11744735_a_at) / RFU CCDC152 (11751479_a_at) / Fold change /veh CCDC152 (11751479_a_at) / RFU FAM211A (11726209_a_at) / Fold change /veh FAM211A (11726209_a_at) / RFU RGS16 (11746705_a_at) / Fold change /veh RGS16 (11746705_a_at) / RFU VCAN (11755009_s_at) / Fold change /veh VCAN (11755009_s_at) / RFU RHOB (11743442_s_at) / Fold change /veh RHOB (11743442_s_at) / RFU RGS16 (11720943_a_at) / Fold change /veh RGS16 (11720943_a_at) / RFU RGS16 (11720944_at) / Fold change /veh RGS16 (11720944_at) / RFU, VPS4B / Fold change vs veh, VPS4B / RFU, CREB1 / Fold change vs veh, CREB1 / RFU, DNAJC13 / Fold change vs veh, DNAJC13 / RFU, GNAQ / Fold change vs veh, GNAQ / RFU, CDK5R1 / Fold change vs veh, CDK5R1 / RFU, ZRANB3 / Fold change vs veh, ZRANB3 / RFU, CUL4A / Fold change vs veh, CUL4A / RFU, CCNY / Fold change vs veh, CCNY / RFU, UFL1 / Fold change vs veh, UFL1 / RFU, COG3 / Fold change vs veh, COG3 / RFU, DIAPH2 / Fold change vs veh, DIAPH2 / RFU, SKA2 / Fold change vs veh, SKA2 / RFU, AFF3 / Fold change vs veh, AFF3 / RFU, LMF1 / Fold change vs veh, LMF1 / RFU, IPO11 / Fold change vs veh, IPO11 / RFU, DFFB / Fold change vs veh, DFFB / RFU, FOXP1 / Fold change vs veh, FOXP1 / RFU, CARD8 / Fold change vs veh, CARD8 / RFU, STRN3 / Fold change vs veh, STRN3 / RFU, ADK / Fold change vs veh, ADK / RFU, RASSF2 / Fold change vs veh, RASSF2 / RFU, WIPF1 / Fold change vs veh, WIPF1 / RFU, LARP1B / Fold change vs veh, LARP1B / RFU, RASA1 / Fold change vs veh, RASA1 / RFU, RB1 / Fold change vs veh, RB1 / RFU, PPFIA1 / Fold change vs veh, PPFIA1 / RFU, MAT2A / Fold change vs veh, MAT2A / RFU, CCT5 / Fold change vs veh, CCT5 / RFU, WDR92 / Fold change vs veh, WDR92 / RFU, CUX1 / Fold change vs veh, CUX1 / RFU, TTC7A / Fold change vs veh, TTC7A / RFU, TMEM135 / Fold change vs veh, TMEM135 / RFU, DEPTOR / Fold change vs veh, DEPTOR / RFU, CPM / Fold change vs veh, CPM / RFU, DNAJB6 / Fold change vs veh, DNAJB6 / RFU, CACNA2D3 / Fold change vs veh, CACNA2D3 / RFU, DTX4 / Fold change vs veh, DTX4 / RFU, TFCP2 / Fold change vs veh, TFCP2 / RFU, GMCL1 /// GMCL1P1 / Fold change vs veh, GMCL1 /// GMCL1P1 / RFU, AEBP2 / Fold change vs veh, AEBP2 / RFU, SNHG1 /// SNORD22 /// SNORD25 /// SNORD26 /// SNORD27 /// SNORD28 /// SNORD29 /// SNORD31 / Fold change vs veh, SNHG1 /// SNORD22 /// SNORD25 /// SNORD26 /// SNORD27 /// SNORD28 /// SNORD29 /// SNORD31 / Fold change (Aza/veh), C12orf56 (ProbeSet 11735607_a_at) / Fold change (ACY-1035/veh), C12orf56 (ProbeSet 11735607_a_at) / Fold change (Aza/veh), FGFR1OP (ProbeSet 11751329_s_at) / Fold change (ACY-1035/veh), FGFR1OP (ProbeSet 11751329_s_at) / Fold change (Aza/veh), VPS36 (ProbeSet 11739960_a_at) / Fold change (ACY-1035/veh), VPS36 (ProbeSet 11739960_a_at) / RFU SYPL1 (11715823_x_at) / Fold change /veh SYPL1 (11715823_x_at) / RFU IGFBP7 (11715501_s_at) / Fold change /veh IGFBP7 (11715501_s_at) / RFU REEP3 (11722064_at) / Fold change /veh REEP3 (11722064_at) / RFU IGLL1 (11728026_x_at) / Fold change /veh IGLL1 (11728026_x_at): dose or concentration left out as unconfirmed
# Conditions: MV-4-11 cells, 48 hours
smiles,measurement,value
Nc1ccc(-c2cccs2)cc1NC(=O)c1ccc2c(c1)cc(C1CC1)n2CCN1CCOCC1 [ACY-1035],RFU RGS16 (11720944_at),40.38 RFU
